According to the OPERA property sets (Mansouri et al. 2018):

Details: for log10 BCF / log10 biotransformation half-life (days): fish

| Compound | melting point [°C] | boiling point [°C] | also measured |
| --- | --- | --- | --- |
| O=C(CO)[C@@H](O)[C@H](O)[C@@H](O)CO | 165 | – | – |
| CC(C)c1cccc(C(C)C)c1 | -63.1 | 203 | log10 vapour pressure (mmHg): -0.406; log10 BCF: 3.28; log10 biotransformation half-life (days): 0.56 |
| CCCCN(CCN(CCCC)C(=O)N1CCOCC1)C(=O)N1CCOCC1 | 41.5 | – | – |
| BrCCc1ccccc1 | -65.7 | 219 | log10 vapour pressure (mmHg): -0.612 |
| O=C1C=CC(=Nc2ccc(O)cc2)C=C1 | 160 | – | – |
| O=C(OCCOC(=O)c1ccccc1)c1ccccc1 | 73.5 | – | – |
| CCCBr | -110 | 71.1 | log10 vapour pressure (mmHg): 2.04 |
| C=CCc1ccc(OC(C)=O)c(OC)c1 | 30.5 | 281 | log10 vapour pressure (mmHg): -2.5 |
| CCCCCCCCC(N)=O | 99.5 | – | – |
| Nc1cc([N+](=O)[O-])cc([N+](=O)[O-])c1 | 163 | – | log10 Koc (L/kg): 2.55 |
| O=C(O)c1cc2ccccc2cc1O | 222 | – | ready biodegradability: not readily biodegradable; log10 BCF: 0.6 |
| CCCCOC(=O)CCC(=O)OCCCC | -29.2 | 274 | – |
| C=CCc1ccc(OC)c(OC)c1 | – | 263 | log10 vapour pressure (mmHg): -1.92; ready biodegradability: readily biodegradable |
| O=[N+]([O-])C(F)(F)F | – | – | log10 vapour pressure (mmHg): 3.85 |
| Cc1ccc([N+](=O)[O-])cc1C | 30.5 | 251 | log10 vapour pressure (mmHg): -2.44 |
| O=[N+]([O-])c1cccc(CO)c1 | 30.5 | – | – |
| O=C(O)CSc1ccccc1 | 65 | – | – |
| Cc1cccc(C(=O)N(NC(=O)c2ccccc2)C(C)(C)C)c1 | 211 | – | – |
| NS(=O)(=O)c1cc2c(cc1C(F)(F)F)NCNS2(=O)=O | 270 | – | – |

| Compound | melting point [°C] | boiling point [°C] | also measured |
| --- | --- | --- | --- |
| Clc1cccc(-c2cc(Cl)ccc2Cl)c1 | – | – | log10 Henry constant (atm·m³/mol): -3.7 |
| C#CC(O)CCC (stereo unspecified) | -80 | 142 | – |
| CNC(=O)CSP(=O)(OC)OC | -28 | – | log10 vapour pressure (mmHg): -4.61 |
| O=C(O)c1ccc(F)cc1F | 189 | – | – |
| OCCN(CCO)CCO | 20.5 | 335 | log10 vapour pressure (mmHg): -5.44; ready biodegradability: not readily biodegradable; log10 BCF: 0.59 |
| C/C(=N/Nc1nc(C)cc(C)n1)c1ccccc1C | 176 | – | log10 vapour pressure (mmHg): -7.51 |
| CC(C)NCC(O)COc1cccc2ccccc12.Cl (stereo unspecified) | 164 | – | – |
| CC1=CC2CC1C1C(=O)OC(=O)C21 (stereo unspecified) | – | – | ready biodegradability: not readily biodegradable |
| Brc1ccc(I)cc1 | 92 | 252 | – |
| ClCCOC(c1ccccc1)c1ccccc1 | – | – | ready biodegradability: not readily biodegradable; log10 BCF: 2.51; log10 biotransformation half-life (days): -0.07 |
| COc1cc2cc(c1Cl)N(C)C(=O)C[C@H](OC(=O)[C@H](C)N(C)C(C)=O)[C@]1(C)O[C@H]1[C@H](C)[C@@H]1C[C@@](O)(NC(=O)O1)C(OC)C=CC=C(C)C2 (stereo partly specified) | 172 | – | – |
| O=[N+]([O-])c1cccc(C(F)(F)F)c1 | -2.4 | 203 | log10 vapour pressure (mmHg): -0.587 |
| N#CSCCl | – | 185 | – |
| C=CCCCCCCCCC(=O)OCC | -38 | 264 | – |
| CC1=CCC(C(C)(C)O)C[C@@H]1O (stereo partly specified) | 130 | 270 | – |
| C[C@]12CCc3c(ccc4cc(O)ccc34)[C@@H]1CCC2=O | 258 | – | – |
| CC(C)COC(=O)c1ccccc1 | – | 242 | – |
| C=CCc1cccc(C)c1O | – | 232 | – |
| CCCCC=CC=O | – | 166 | – |

| Compound | melting point [°C] | boiling point [°C] | also measured |
| --- | --- | --- | --- |
| CCCCS(=O)(=O)O | -15.2 | – | – |
| O=C(O)C(F)(F)C(F)(F)C(=O)O | 119 | – | – |
| Cc1ccc(Br)cc1C | -0.2 | 214 | – |
| COCBr | – | 87 | – |
| CCCCCCCCCC(N)=O | 108 | – | – |
| C(#Cc1ccccc1)c1ccccc1 | 62.5 | 300 | log10 vapour pressure (mmHg): -2.64 |
| CCOC(=O)Cc1cccc2ccccc12 | 88.5 | – | log10 Koc (L/kg): 2.48 |
| C=CCC1=C(C)C(OC(=O)C2C(C=C(C)C)C2(C)C)CC1=O (stereo unspecified) | -40 | – | log10 vapour pressure (mmHg): -5.92; ready biodegradability: not readily biodegradable |
| Nc1c(Br)cc(Br)cc1Br | 122 | 300 | – |
| CCC1CCC(=O)O1 (stereo unspecified) | -18 | 216 | – |
| Clc1cc(Cl)c2c(Cl)cccc2c1Cl | – | – | log10 Koa: 8.58 |
| C=C/C(C)=C\CC=C(C)C | – | – | log10 OH rate constant (cm³/molecule/s) ([…]): -9.6 |
| C=CC#CCC | – | 85 | – |
| C[C@@H]1C[C@H]2[C@@H]3C[C@H](F)C4=CC(=O)C=C[C@]4(C)[C@H]3[C@@H](O)C[C@]2(C)[C@H]1C(=O)CO | 188 | – | – |
| NCCN | 11.1 | 117 | log10 Henry constant (atm·m³/mol): -8.76; log10 vapour pressure (mmHg): 1.08; ready biodegradability: readily biodegradable |
| CCN(CC)CCn1cnc2c1c(=O)n(C)c(=O)n2C | 75 | – | – |
| Cc1c(Br)c(Br)c(Br)c(Br)c1Br | 288 | – | ready biodegradability: not readily biodegradable; log10 BCF: 2.43; log10 biotransformation half-life (days): -0.13 |
| C=C | -169 | -104 | log10 Henry constant (atm·m³/mol): -0.642; log10 Koa: 0.28; log10 vapour pressure (mmHg): 4.72 |
| NC(=O)c1ccccc1 | 129 | 290 | log10 Henry constant (atm·m³/mol): -9.61; log10 Koc (L/kg): 1.46 |
